In patent publication US4897402A, “5-oxa, 5-thia, 5-aza HmG-CoA reductase inhibitors” (Merck & Co., Inc., priority 1988, dated 1990):

Target: T1, HMG-CoA reductase (Rattus norvegicus, UniProt P51639)
T1 sequence (P51639 1-887): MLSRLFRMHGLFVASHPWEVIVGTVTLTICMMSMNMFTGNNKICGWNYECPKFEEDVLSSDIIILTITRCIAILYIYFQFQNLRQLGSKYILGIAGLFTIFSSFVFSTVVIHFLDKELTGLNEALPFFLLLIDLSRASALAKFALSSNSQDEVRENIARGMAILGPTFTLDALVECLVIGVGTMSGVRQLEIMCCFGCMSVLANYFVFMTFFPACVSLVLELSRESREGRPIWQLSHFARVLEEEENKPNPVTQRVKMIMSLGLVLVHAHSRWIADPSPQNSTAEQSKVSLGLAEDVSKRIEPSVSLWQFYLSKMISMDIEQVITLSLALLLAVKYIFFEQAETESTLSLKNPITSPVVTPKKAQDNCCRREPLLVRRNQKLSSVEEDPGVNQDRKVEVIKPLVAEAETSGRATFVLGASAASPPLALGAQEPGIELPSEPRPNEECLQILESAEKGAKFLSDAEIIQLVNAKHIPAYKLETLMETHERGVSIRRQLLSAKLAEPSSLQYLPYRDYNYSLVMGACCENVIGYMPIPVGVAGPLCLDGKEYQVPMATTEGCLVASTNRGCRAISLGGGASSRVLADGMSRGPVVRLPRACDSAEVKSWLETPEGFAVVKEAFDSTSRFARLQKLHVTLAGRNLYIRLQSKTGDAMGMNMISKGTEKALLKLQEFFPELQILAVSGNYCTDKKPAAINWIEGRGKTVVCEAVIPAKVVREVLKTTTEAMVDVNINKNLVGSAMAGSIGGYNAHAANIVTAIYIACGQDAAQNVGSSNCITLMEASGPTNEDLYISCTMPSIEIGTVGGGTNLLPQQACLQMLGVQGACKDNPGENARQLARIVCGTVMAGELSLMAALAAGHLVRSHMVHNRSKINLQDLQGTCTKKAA
Assay: intrinsic HMG-CoA reductase inhibition, in vitro protocol of J. Med. Chem., 28, p. 347-358 (1985)
Type: biochemical
Details: IC50 of test compound compared with that of compactin (mevastatin) determined simultaneously; compactin assigned a value of 100
Protocol: The intrinsic HMG--CoA reductase inhibition activity of the claimed compounds is measured in the in vitro protocol published in J. Med. Chem., 28, p. 347-358 (1985).
For estimation of relative inhibitory potencies, compactin (i.e., mevastatin) was assigned a value of 100 and the IC50 value of the test compound was compared with that of compactin determined simultaneously in the published in vitro protocol.
Representative of the intrinsic HMG-CoA reductase inhibitory activities of the claimed compounds are the following potencies.

SMILES	Relative Potency
CCC(C)(C)C(=O)O[C@H]1C[C@](C)(CSc2ccccc2)O[C@@H]2CC[C@H](C)[C@H](CC[C@@H]3C[C@@H](O)CC(=O)O3)[C@@H]12 [Compound 11, 6(R)-[2-[8(S)-(2,2-dimethylbutyryloxy)-2(S)-methyl-5-oxa-6(R)-(phenylthiomethyl, methyl)-1,2,3,4,4a(R),7,-8,8a(R)-octahydronaphthyl-1(S)]ethyl]-4-(R)-hydroxy 3,4,5,6-tetrahydro-2H-pyran-2-one]	280
CCC(C)(C)C(=O)O[C@H]1CC(C)(C)O[C@@H]2CC[C@H](C)[C@H](CC[C@@H]3C[C@@H](O)CC(=O)O3)[C@@H]12 [Compound 9, 6(R) [2-[8(S)-(2,2-dimethylbutyryloxy)-2(S)-methyl-5-oxa-6,6-dimethyl-1,2,3,4,4a(R),7,8,8a(R)-octahydronaphthyl-1(S)]ethyl]-4(R)-hydroxy-3,4,5,6-tetrahydro-2H-pyran-2-one]	96
CCC(C)(C)C(=O)O[C@H]1C[C@@](C)(CSc2ccccc2)O[C@@H]2CC[C@H](C)[C@H](CC[C@@H]3C[C@@H](O)CC(=O)O3)[C@@H]12 [Compound 10, 6(R)-[2-[8(S)-(2,2-dimethylbutyryloxy)-2(S)-methyl-5-oxa-6(S)-(phenylthiomethyl, methyl)-1,2,3,4,4a(R),7,8,8a(R)-octahydronaphthyl-1(S)]ethyl]4(R)-hydroxy 3,4,5,6-tetrahydro-2H-pyran-2-one]	258
